The structures appear in SMILES notation. Active and inactive are the calls of the source. A value given as a limit tells only on which side of the number the result lay.

The values that follow come from ChEMBL document CHEMBL1201862, “PubChem BioAssay data set” (2004).

Test [1] in a line: viability inhibitors of stage V gametocytes – luminescence, dose response (AID 1117278).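 Also: gametocytes exposed to compound for 24 hours.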 It is filed as functional, cell-based.
A short description of test [2]: viability loss in human Jurkat cells – cell-based, luminescence, cytotoxicity control for P. falciparum gametocyte viability project, dose response (AID 1117277).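 Also: potency reflects loss of cellular ATP meaning fewer viable cells.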 Type of test: functional.
The target of test [3] is Voltage-dependent T-type calcium channel subunit alpha-1H (Homo sapiens, UniProt O95180). Type of test: functional.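 Also: channel activity triggered by adding a high calcium stimulation buffer.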
Sequence of Voltage-dependent T-type calcium channel subunit alpha-1H (O95180 whole entry): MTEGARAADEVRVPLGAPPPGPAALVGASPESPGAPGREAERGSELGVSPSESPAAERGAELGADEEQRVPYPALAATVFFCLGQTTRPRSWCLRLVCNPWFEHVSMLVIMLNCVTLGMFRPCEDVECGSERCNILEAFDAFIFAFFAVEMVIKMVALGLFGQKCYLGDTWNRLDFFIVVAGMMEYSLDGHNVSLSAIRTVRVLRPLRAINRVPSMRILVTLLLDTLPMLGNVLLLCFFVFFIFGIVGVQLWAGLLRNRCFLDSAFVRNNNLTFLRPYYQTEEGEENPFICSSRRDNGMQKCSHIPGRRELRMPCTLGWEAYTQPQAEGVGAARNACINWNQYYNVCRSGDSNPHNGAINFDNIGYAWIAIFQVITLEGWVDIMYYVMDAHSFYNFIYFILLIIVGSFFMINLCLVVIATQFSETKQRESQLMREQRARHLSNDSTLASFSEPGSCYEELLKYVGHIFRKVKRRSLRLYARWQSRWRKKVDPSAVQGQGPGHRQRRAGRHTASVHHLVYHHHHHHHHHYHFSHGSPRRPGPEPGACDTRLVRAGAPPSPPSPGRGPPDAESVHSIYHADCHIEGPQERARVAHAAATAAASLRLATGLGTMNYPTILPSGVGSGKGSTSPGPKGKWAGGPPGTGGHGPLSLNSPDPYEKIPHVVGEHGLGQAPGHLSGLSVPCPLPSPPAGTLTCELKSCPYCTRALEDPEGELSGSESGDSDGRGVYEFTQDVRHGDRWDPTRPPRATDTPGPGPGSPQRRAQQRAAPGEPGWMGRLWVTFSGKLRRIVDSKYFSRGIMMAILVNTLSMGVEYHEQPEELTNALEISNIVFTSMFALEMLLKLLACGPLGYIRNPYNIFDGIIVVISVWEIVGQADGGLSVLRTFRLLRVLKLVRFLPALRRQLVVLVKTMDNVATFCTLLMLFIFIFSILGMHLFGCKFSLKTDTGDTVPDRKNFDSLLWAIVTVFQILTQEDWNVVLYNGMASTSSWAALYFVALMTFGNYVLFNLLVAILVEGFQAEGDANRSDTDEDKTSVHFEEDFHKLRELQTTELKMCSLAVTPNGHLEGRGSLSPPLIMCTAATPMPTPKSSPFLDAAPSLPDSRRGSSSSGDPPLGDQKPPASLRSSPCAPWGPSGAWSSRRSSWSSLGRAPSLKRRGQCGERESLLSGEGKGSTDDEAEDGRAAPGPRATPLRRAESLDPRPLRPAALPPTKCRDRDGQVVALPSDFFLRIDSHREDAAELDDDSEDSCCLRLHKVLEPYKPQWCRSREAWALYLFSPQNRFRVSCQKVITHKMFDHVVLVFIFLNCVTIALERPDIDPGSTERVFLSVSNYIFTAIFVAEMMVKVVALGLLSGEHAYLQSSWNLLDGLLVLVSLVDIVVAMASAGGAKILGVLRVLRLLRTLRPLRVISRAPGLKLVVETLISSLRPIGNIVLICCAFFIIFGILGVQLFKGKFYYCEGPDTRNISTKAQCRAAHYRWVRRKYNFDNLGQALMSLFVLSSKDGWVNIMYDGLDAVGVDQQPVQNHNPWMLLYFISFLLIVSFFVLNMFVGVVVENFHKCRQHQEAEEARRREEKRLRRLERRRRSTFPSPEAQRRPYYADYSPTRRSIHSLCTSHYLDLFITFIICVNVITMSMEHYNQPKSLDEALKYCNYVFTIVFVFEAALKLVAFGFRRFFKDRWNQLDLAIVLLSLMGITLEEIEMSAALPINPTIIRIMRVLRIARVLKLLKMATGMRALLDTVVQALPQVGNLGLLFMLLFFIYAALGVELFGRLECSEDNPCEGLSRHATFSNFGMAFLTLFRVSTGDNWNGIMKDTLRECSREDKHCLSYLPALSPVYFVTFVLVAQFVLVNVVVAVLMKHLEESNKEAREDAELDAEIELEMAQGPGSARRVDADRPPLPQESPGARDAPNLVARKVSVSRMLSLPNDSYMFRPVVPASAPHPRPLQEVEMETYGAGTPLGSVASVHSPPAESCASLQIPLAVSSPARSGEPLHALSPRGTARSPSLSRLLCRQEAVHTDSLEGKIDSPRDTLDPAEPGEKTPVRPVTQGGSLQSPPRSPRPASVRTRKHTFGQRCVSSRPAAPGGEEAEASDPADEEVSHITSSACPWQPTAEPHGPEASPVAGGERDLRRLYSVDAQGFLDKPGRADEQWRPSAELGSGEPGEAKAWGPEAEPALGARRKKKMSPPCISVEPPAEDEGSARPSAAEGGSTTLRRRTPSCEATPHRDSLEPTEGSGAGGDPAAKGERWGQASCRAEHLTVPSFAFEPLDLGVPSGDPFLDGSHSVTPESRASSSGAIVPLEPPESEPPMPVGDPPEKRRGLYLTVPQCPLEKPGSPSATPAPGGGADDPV
The target in test [4] is Sphingosine 1-phosphate receptor 2 (Homo sapiens, UniProt O95136). In words: Dose Response Cell Based Assay for Agonists of the S1P2 Receptor. [Related pubchem assays: 729, 736, 843 ]. Type of test: functional.
Test [5] is described as follows: fluconazole-exposed Candida albicans growth modulators – fluorescence, retest, confirmation (AID 2467). Type of test: functional, cell-based.
Test [6] can be described thus: NIH-3T3 fibroblast cytotoxicity, dose response, cytotoxicity control, cell-based, fluorescence, Alamar Blue, secondary assay (AID 2327).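 Also: NIH-3T3 mouse fibroblasts cultured with fluconazole at 8 µg/mL.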 It is filed as functional.
Test [7] in a line: reduced cellular PGC1a acetyl-lysine signal – cell-based, cherry-picked samples, dose response (AID 720514).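 Also: potency may reflect raised or lowered acetylation signal.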 Type of test: functional.
The nature of test [8]: cells. Type of test: functional.
In the next test the target is Cytochrome P450 2D6 (Homo sapiens, UniProt P10635).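 Also: CYP2D6 member of a cytochrome P450 panel assay.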
In a further test the target is Cytochrome P450 2C9 (Homo sapiens, UniProt P11712).
Test [9] is described as follows: microbe, parasite or virus in culture. Type of test: functional. As to conditions: Mycobacterium tuberculosis.
Test [10] can be described thus: THP-1 cell cytotoxicity, dose response, cytotoxicity control for non-replicating M. tuberculosis project (AID 489025). Type of test: functional.
The next test concerns the target Ephrin type-A receptor 4 (Mus musculus, UniProt Q03137). Kind of test: EphA4 ligand-binding antagonists – biochemical, colorimetric, mouse EphA4, primary screen (AID 689). It is filed as functional.
The target in test [11] is T1, Estrogen receptor beta (Homo sapiens, UniProt Q92731).
T1 sequence (Q92731 whole entry): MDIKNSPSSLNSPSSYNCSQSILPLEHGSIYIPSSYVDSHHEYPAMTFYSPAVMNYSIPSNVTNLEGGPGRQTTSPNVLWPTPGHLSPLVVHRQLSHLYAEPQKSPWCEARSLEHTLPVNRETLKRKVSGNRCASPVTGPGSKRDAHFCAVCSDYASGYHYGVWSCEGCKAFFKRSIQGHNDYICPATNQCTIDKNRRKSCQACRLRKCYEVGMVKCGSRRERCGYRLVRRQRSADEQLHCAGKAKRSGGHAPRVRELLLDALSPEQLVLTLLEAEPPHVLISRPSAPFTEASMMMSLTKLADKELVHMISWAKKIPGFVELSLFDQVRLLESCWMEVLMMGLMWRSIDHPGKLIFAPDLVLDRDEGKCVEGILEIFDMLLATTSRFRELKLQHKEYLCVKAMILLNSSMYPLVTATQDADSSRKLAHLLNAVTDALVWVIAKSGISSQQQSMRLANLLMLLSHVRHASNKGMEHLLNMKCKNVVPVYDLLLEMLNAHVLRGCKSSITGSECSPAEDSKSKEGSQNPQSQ
Test [12] concerns the target T2, Low molecular weight phosphotyrosine protein phosphatase (Homo sapiens, UniProt P24666).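 Also: Dose-response confirmation assay measuring inhibition of LMPTP enzyme activity by fluorescence intensity read-out.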
T2 sequence (P24666 whole entry): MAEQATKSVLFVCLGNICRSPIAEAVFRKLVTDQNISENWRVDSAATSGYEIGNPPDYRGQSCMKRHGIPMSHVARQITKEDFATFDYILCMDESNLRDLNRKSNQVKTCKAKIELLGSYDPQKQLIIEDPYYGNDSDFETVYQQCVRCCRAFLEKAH
It is filed as functional. As to conditions: read-out: IC50_Mean.

Test [13] has as its target T3, Tyrosine-protein phosphatase non-receptor type 7 (Homo sapiens, UniProt P35236).
T3 sequence (P35236 whole entry): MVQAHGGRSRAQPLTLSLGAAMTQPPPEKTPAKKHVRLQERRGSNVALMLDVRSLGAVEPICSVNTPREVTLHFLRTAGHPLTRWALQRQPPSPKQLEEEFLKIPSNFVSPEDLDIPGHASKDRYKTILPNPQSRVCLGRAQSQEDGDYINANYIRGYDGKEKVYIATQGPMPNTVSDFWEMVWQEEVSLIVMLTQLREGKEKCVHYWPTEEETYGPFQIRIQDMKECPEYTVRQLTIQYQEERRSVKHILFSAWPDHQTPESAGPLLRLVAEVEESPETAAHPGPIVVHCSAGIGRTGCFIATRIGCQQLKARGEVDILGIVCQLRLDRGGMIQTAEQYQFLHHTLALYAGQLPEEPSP
Kind of test: HePTP tyrosine phosphatase activity blockers – biochemical, absorbance, leukemia target, primary screen (AID 521). It is filed as functional.

The target in test [14] is T1, Estrogen receptor beta. Kind of test: blockers of SRC-3 recruitment to ERβ – biochemical, ELISA, streptavidin-HRP readout, orthogonal assay, confirmation (AID 1060).
Test [15] is described as follows: NIH3T3 cell viability loss – ATP luminescence, mouse fibroblasts, counter-screen, dose response (AID 2010).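 Also: cells exposed to compound for about 90 hours before reading.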 Type of test: functional, cell-based.
Test [16] in a line: Trypanosoma cruzi growth suppression in host cells – NIH3T3 host cells, beta-gal luminescence, confirmation (AID 2044).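 Also: intracellular parasites grown in NIH/3T3 mouse fibroblasts as host cells; luminescent beta-galactosidase reporter signal from transgenic T. cruzi replicating inside host cells; inhibitors lower the luminescence signal.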 It is filed as functional, cell-based.
For another test, the system named is CHO. In words: CHO cell viability loss, potency – luminescence, cytotoxicity control for TLR9-MyD88 binding inhibitor project, dose response (AID 588339).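 Also: CHO cells stably coexpressing TLR9 and MyD88 fusions from primary screen; compound exposure lasted 48 hours before viability readout.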 As to conditions: Cricetulus griseus. It is filed as functional, cell-based, hamster.
A short description of test [17]: HIV-1 Vif–A3G interaction blockers – biochemical, TR-FRET, GST-Vif 1-94, biotin-A3G peptide, dose response retest, primary screen (AID 1117319).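 Also: TR-FRET signal of purified GST-Vif binding a biotinylated A3G peptide; inhibitors lower the FRET signal by blocking Vif and A3G binding.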 It is filed as functional.
The target of test [18] is Glucose-6-phosphate 1-dehydrogenase (Homo sapiens, UniProt P11413). Kind of test: inhibition of Homo sapiens G6PD, dose series – biochemical, fluorescence, selectivity assay for P. falciparum G6PD inhibitor project, dose response (AID 504792). It is filed as functional.
Sequence of Glucose-6-phosphate 1-dehydrogenase (P11413 whole entry): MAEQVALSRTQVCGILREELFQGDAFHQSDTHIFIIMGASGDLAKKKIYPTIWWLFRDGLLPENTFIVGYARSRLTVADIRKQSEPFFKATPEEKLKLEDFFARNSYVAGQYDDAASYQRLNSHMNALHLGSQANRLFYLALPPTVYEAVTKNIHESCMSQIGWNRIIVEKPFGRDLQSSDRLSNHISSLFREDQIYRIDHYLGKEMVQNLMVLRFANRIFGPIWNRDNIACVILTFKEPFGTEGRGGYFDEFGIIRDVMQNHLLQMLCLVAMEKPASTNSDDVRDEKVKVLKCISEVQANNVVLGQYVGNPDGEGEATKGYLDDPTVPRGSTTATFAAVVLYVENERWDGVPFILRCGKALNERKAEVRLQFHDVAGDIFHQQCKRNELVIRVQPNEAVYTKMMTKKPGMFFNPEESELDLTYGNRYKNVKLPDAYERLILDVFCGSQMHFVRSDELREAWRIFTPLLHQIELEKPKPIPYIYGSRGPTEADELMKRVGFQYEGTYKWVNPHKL
For test [19], the target named is T4, Rac GTPase-activating protein 1 (Homo sapiens, UniProt Q9H0H5).
T4 sequence (Q9H0H5 whole entry): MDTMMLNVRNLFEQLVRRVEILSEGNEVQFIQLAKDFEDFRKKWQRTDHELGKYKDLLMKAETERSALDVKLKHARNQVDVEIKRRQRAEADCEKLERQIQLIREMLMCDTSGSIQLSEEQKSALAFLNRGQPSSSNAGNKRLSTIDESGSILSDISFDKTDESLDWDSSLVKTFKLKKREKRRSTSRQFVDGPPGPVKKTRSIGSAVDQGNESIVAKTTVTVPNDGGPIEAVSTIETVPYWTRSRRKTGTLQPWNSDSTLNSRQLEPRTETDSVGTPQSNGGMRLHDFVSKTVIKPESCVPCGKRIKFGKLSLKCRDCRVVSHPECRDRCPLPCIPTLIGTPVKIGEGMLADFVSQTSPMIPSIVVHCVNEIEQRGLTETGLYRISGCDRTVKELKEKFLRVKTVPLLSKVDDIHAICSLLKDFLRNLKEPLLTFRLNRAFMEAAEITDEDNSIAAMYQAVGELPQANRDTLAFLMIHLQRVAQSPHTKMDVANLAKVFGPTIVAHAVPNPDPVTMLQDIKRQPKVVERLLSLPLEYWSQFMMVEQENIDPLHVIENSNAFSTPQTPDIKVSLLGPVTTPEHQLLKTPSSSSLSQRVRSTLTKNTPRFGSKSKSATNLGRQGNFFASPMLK
Kind of test: blockers of MgcRacGAP-driven Rac1 GTP hydrolysis – biochemical, ADP Hunter fluorescence, primary and confirmatory, confirmation (AID 624330). Type of test: functional.

The nature of test [20]: non-specific 3'UTR reporter inhibition in Clone20-Shn3RL – cell-based, Renilla luciferase, cherry-picked, counter-screen for Shn3 inhibitor project, dose response (AID 624133). Type of test: functional.
Test [21] can be described thus: reduction of Shn3 3'UTR-driven luciferase in osteoblasts – cell-based, Clone20 osteoblasts, firefly luciferase, cherry-picked, dose response (AID 624132).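 Also: firefly luciferase luminescence from reporter carrying the Shn3 3'UTR in osteoblasts.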 Type of test: functional.
The target in another test is Beta Lactamase (Pseudomonas aeruginosa, UniProt Q932Y6). In words: BLA reporter interference, concentration series – BLA reporter cells, FRET fluorescence, artefact control for TLR9-MyD88 binding inhibitor project, dose response (AID 588341).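 Also: cell based assay in CHO-K1 cells stably expressing beta-lactamase.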 It is filed as cell-based.
Sequence of Beta Lactamase (Q932Y6 whole entry): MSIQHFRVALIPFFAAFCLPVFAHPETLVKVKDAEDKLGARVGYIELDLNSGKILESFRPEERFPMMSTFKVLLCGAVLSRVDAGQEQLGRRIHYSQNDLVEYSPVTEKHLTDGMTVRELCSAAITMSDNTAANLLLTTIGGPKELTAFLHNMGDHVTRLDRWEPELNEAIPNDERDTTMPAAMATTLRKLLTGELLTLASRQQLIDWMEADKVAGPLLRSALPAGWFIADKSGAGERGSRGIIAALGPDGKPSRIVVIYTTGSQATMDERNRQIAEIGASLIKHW
A short description of test [22]: loss of viability in HepG2 cells – cell-based, CellTiter-Glo, cherry-picked, cytotoxicity control for Shn3 inhibitor project, dose response (AID 624134). It is filed as functional.
In test [23] the target is Eukaryotic translation initiation factor 4E (Mus musculus, UniProt P63073). In words: blockers of eIF4G binding by eIF4E – biochemical, TR-FRET, dose response (AID 855).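 Also: potency for disrupting eIF4E binding to eIF4GI seen as loss of FRET.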 It is filed as functional.
Test [24] has as its target E3 ubiquitin-protein ligase Mdm2 (Homo sapiens, UniProt Q00987). In words: MDM2-luc reporter signal enhancers, multi-concentration potency testing, MDM2 ubiquitin-protein ligase inhibitor program, whole-cell format, luminescence detection, 384-well microplate (AID 1394).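 Also: MDM2 E3 inhibitors raise luminescence so EC50 is for signal enhancement.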 It is filed as functional.
Test [25] in a line: cells.
For the next test, the target named is Melanocortin receptor 4 (Homo sapiens, UniProt P32245). Type of test: functional, cell-based.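 Also: Cell-based assay with luminescence read-out, confirmatory dose-response testing for agonist activity of biased ligands at MC4R; human U2OS cells with tagged receptor and beta-arrestin; potency of agonists that increase receptor coupling to beta-arrestin.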
Sequence of Melanocortin receptor 4 (P32245 whole entry, the tested form may be a part): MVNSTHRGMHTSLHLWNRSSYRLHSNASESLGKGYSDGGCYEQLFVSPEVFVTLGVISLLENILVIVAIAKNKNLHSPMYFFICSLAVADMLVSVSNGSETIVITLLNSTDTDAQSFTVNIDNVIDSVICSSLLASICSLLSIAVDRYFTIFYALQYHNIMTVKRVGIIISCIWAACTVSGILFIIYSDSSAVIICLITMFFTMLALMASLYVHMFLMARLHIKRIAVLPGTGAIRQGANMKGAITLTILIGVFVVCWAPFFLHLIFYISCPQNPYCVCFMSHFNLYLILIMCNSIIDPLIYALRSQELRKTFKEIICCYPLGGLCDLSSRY
For test [26], the target named is Oxysterols receptor LXR-beta (Homo sapiens, UniProt P55055). Type of test: functional, cell-based.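 Also: Cell-based luminescence dose-response assay of agonist activity at LXR, run as a confirmatory counterscreen to a daf-12 agonist screen; HEK293 cells with Gal4-LXR fusion and GAL4-driven luciferase reporter; agonist potency from rising luciferase signal of a Gal4-LXR reporter.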
Sequence of Oxysterols receptor LXR-beta (P55055 whole entry, the tested form may be a part): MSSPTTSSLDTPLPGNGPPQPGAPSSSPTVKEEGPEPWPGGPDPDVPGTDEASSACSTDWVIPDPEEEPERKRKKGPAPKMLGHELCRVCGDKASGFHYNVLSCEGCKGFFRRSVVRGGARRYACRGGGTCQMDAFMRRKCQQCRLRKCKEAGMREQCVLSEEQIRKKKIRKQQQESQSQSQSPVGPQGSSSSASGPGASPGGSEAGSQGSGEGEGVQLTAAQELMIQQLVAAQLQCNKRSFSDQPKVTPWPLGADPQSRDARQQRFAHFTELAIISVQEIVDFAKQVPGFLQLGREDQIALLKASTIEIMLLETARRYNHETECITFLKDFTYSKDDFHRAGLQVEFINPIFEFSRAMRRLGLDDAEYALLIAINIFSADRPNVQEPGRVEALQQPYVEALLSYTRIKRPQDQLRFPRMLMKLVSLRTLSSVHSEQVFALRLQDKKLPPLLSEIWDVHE
For a further test, the target named is T5, CAAX prenyl protease 2 (Saccharomyces cerevisiae S288c, UniProt Q03530).
T5 sequence (Q03530 whole entry): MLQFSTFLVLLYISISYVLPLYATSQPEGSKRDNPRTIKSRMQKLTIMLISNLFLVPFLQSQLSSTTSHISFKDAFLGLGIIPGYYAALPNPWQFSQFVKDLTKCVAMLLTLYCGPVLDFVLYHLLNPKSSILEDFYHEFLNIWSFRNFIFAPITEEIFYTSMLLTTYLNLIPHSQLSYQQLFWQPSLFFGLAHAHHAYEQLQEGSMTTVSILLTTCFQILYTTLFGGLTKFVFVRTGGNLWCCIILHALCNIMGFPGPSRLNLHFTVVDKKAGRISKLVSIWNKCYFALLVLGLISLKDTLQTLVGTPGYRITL
It is filed as biochemical.

A short description of test [27]: viability loss in THP-1 monocytes – THP-1 cells, cytotoxicity control for Vif-APOBEC3G degradation inhibitor project, dose response (AID 1117359). It is filed as functional. As to conditions: THP-1.
Test [28] in a line: rise of 4N DNA cells, HeLa – IC50, dose response (AID 1117351). It is filed as functional, cell-based.
Test [29] can be described thus: rise of 2N DNA cells, HeLa – IC50, dose response (AID 1117349). Type of test: functional, cell-based.
Test [30] in a line: IC50 of insulin release inhibition, rat insulinoma INS-1E line, 5 mM glucose, cell-based (AID 1117331). Type of test: functional.
The nature of test [31]: cells. The conditions noted are these: INS-1E. It is filed as functional, cell-based.

Sequence of E3 ubiquitin-protein ligase Mdm2 (Q00987 whole entry): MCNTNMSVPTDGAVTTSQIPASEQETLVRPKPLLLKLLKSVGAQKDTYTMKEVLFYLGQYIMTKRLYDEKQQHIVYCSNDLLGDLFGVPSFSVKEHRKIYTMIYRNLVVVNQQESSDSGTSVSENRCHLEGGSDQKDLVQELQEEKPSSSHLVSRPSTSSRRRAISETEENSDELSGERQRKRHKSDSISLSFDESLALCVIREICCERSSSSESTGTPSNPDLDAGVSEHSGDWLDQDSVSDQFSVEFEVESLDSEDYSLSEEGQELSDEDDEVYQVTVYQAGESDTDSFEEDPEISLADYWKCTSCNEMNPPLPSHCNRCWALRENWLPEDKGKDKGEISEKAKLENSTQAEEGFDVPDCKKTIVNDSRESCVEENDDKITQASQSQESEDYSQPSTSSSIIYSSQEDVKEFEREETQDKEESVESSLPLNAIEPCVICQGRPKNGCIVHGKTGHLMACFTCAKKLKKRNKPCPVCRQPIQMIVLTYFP

On to `COc1ccc(OC)c(NC(=O)C2CCN(Cc3cnn(-c4ccccc4)c3-n3cccc3)CC2)c1`, for which the figures for the IC50 in test [1] and in test [2] were > 109 µM (inactive) and > 83.3 µM (inactive), respectively. In addition, the EC50 in [3] is 2.48 µM (active).
For `c1ccc(-c2nc3ccccn3c2NCc2ccc3c(c2)OCO3)cc1`, the EC50 in test [4] is > 50 µM (not active).
Regarding `Sc1ncnc2c1cnn2Cc1ccccc1`, the values for the EC50 in test [5] and in test [6] were 3.56 µM (active) and > 150 µM (inactive), respectively. The AC50 in test [7] is 11.2 µM (active).
Regarding `CCCCCCOC(=O)C(C#N)c1nc2ccccc2nc1N1CCN(CC)CC1` (configuration not stated), the IC50 in “cells [8]” is 13.6 µM (active); on Ephrin type-A receptor 4, > 100 µM (not active). The AC50 on Cytochrome P450 2D6 was 25.1 µM (inconclusive); at Cytochrome P450 2C9 it was 7.94 µM (inconclusive). Besides, the CC50 in [9] is 19.7 µM (active); in [10], 24.7 µM (active).
On to `CCc1nc2sc3ccccc3c(=O)c2c(=O)n1Cc1ccco1`, for which the IC50 on Estrogen receptor beta [11] was 6.59 µM (active); in test [12] it was 52.2 µM (inactive); in test [13], 15.1 µM (active); against Estrogen receptor beta [14], 12.6 µM (not active).
Regarding `CC(C)C(Nc1ncnc2c1oc1ccccc12)C(=O)O` (configuration not stated), the values for the EC50 in test [15] and in test [16] were 10.8 µM (active) and 12.6 µM (active), respectively. Moreover, the IC50 is > 109 µM (inactive) in test [1] and > 83.3 µM (inactive) in test [2].
As to `C[C@]12CCC(=O)C=C1CCC1C2CC[C@@]2(C)C1CC[C@@]2(O)CC#N` (some centres not stated), the IC50 against Estrogen receptor beta [11] is given as > 50 µM (not active).
On to `COc1cc(N2C(=O)C=CC2=O)ccc1N1C(=O)C=CC1=O`, for which the IC50 in the test on CHO was 1.59 µM (active); in test [17], > 100 µM (active); in test [18], 57.4 µM (inactive); in test [19], 53.8 µM (active); at Beta Lactamase, 11 µM (inactive). The results for the AC50 in test [20], in test [21] and in test [22] were 12.5 µM (active), 2.32 µM (active) and 15.8 µM (active), respectively.
For the molecule `CCn1c(SCC(=O)NCc2ccc3c(c2)OCO3)nnc1-c1cccs1`, the IC50 is > 100 µM (active) in [17] and > 64 µM (inactive) in [23].
With `Clc1ccccc1/C=N/NC1=Nc2cccc3cccc1c23`, the 50% effective concentration (EC50) in [24] is 10.6 µM (not active); in the test “cells [25]”, > 67.6 µM (inactive); on Melanocortin receptor 4, > 89.3 µM (inactive); in test [26], > 67.6 µM (inactive).
`COc1ccc(-c2ccc([C@@H]3[C@@H]4CN(Cc5ccccn5)C[C@H]3N4)cc2)cc1`: in test [7], the AC50 was 28.7 µM (active).
For `COC(=O)C1CCCN1S(=O)(=O)c1ccc2ccccc2c1` (configuration not stated), the AC50 at CAAX prenyl protease 2 is 8.28 µM (active). Also, in [27], the CC50 is > 40 µM (active).
With `CSc1ccc2c(c1)C(N1CCN(C)CC1)Cc1ccccc1S2` (configuration not stated) [METITEPINE], the IC50 was > 10 µM (inactive) in test [28], > 10 µM (inactive) in [29], 2.94 µM (active) in [30] and > 33.3 µM (inactive) in the test “cells [31]”.
Regarding `CCCNCC(O)COc1ccccc1C(=O)CCc1ccccc1` (configuration not stated) [PROPAFENONE], the IC50 was > 10 µM (inactive) in [28], > 10 µM (inactive) in test [29], 4.92 µM (active) in test [30] and > 33.3 µM (inactive) in the test “cells [31]”.
